In ChEMBL document CHEMBL1201862, “PubChem BioAssay data set” (2004):
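Interpolation was linear, between the two tested concentrations surrounding the appropriate level; five concentrations were tested over 48 hours in 96-well plates. GI50: concentration for 50% inhibition of growth.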 Calls of active or inactive are those of the source. No stated cut-off is given here; in the data, active = GI50 up to about 1.1 µM and inactive = higher.

Experiments:
Test in all cases: NCI tumour cell line growth inhibition, 48 h
IGROV-1 = test system: IGROV-1
SK-MEL-28 = test system: SK-MEL-28
OVCAR-8 = test system: OVCAR-8
NCI-H226 = test system: NCI-H226
DU-145 = test system: DU-145
UACC-257 = test system: UACC-257
SK-MEL-2 = test system: SK-MEL-2
K562 = test system: K562
HOP-62 = test system: HOP-62
SNB-19 = test system: SNB-19
MOLT-4 = test system: MOLT-4
HCT-15 = test system: HCT-15
MDA-N = test system: MDA-N
UO-31 = test system: UO-31
SW-620 = test system: SW-620
RPMI-8226 = test system: RPMI-8226
OVCAR-5 = test system: OVCAR-5
SF-268 = test system: SF-268
Hs-578T = test system: Hs-578T

| Structure (SMILES) | GI50 (IGROV-1) | GI50 (SK-MEL-28) | GI50 (OVCAR-8) | GI50 (NCI-H226) | GI50 (DU-145) | GI50 (UACC-257) | GI50 (SK-MEL-2) | GI50 (K562) | GI50 (HOP-62) | GI50 (SNB-19) | GI50 (MOLT-4) | GI50 (HCT-15) | GI50 (MDA-N) | GI50 (UO-31) | GI50 (SW-620) | GI50 (RPMI-8226) | GI50 (OVCAR-5) | GI50 (SF-268) | GI50 (Hs-578T) |
| --- | --- | --- | --- | --- | --- | --- | --- | --- | --- | --- | --- | --- | --- | --- | --- | --- | --- | --- | --- |
| CN1CCN(/C(N)=C(\C#N)C(=O)Nc2ccccc2)CC1 | > 100 µM (inactive) | > 100 µM (inactive) | > 100 µM (inactive) | > 100 µM (inactive) | > 100 µM (inactive) | > 100 µM (inactive) | > 100 µM (inactive) | > 100 µM (inactive) | > 100 µM (inactive) | > 100 µM (inactive) | > 100 µM (inactive) | > 100 µM | > 100 µM (inactive) | > 100 µM (inactive) | > 100 µM (inactive) | > 100 µM (inactive) | > 100 µM (inactive) |  |  |
| CCN(CC)CC(=O)Nc1ccc2c(c1)C(=O)c1ccc(NC(=O)CN(CC)CC)cc1C2=O | 17.7 µM (inactive) | 53.2 µM (inactive) | 29.5 µM (inactive) |  |  | 31.8 µM (inactive) | > 100 µM (inactive) | 24.7 µM (inactive) | 20.3 µM (inactive) | 23.8 µM (inactive) | 17.8 µM (inactive) | 36.4 µM |  | > 100 µM (inactive) | 24.9 µM (inactive) | 31.3 µM (inactive) | > 100 µM (inactive) | 23.1 µM (inactive) |  |
| Cc1ccc(NC(=O)c2cc3ccccc3c(/N=N\c3ccccc3O)c2O)c(C)c1 | 1.14 µM (inactive) | 5.09 µM (inactive) | 0.859 µM (active) | 2.82 µM (inactive) |  | 4.75 µM (inactive) | 2.98 µM (inactive) | 3.09 µM (inactive) | 1.03 µM (active) | 1.2 µM (inactive) | 1.25 µM (inactive) | 0.614 µM |  |  | 1.69 µM (inactive) | 1.78 µM (inactive) | 3.1 µM (inactive) | 0.687 µM (active) | 1.64 µM (inactive) |
| OCC1C2CCC3(OCCO3)C12 (centres undefined) | > 100 µM (inactive) | > 100 µM (inactive) | > 100 µM (inactive) | > 100 µM (inactive) | > 100 µM (inactive) | > 100 µM (inactive) | > 100 µM (inactive) | > 100 µM (inactive) | > 100 µM (inactive) | > 100 µM (inactive) | > 100 µM (inactive) | > 100 µM | > 100 µM (inactive) | 15.4 µM (inactive) | > 100 µM (inactive) | > 100 µM (inactive) | > 100 µM (inactive) | > 100 µM (inactive) |  |
| COc1ccc(CCNC(=O)[C@H]2CCCC[C@@H]2CCO)cc1OC | > 100 µM (inactive) | > 100 µM (inactive) | > 100 µM (inactive) | > 100 µM (inactive) | > 100 µM (inactive) | > 100 µM (inactive) | > 100 µM (inactive) | > 100 µM (inactive) | > 100 µM (inactive) | > 100 µM (inactive) | > 100 µM (inactive) | > 100 µM |  | 54.7 µM (inactive) | > 100 µM (inactive) | > 100 µM (inactive) | > 100 µM (inactive) | > 100 µM (inactive) | > 100 µM (inactive) |
| O=C(c1cccs1)c1nccc2c1cnc1ccccc12 |  | > 100 µM (inactive) | 31.4 µM (inactive) | > 100 µM (inactive) | > 100 µM (inactive) | > 100 µM (inactive) | > 100 µM (inactive) | > 100 µM (inactive) | 28.7 µM (inactive) | > 100 µM (inactive) | > 100 µM (inactive) | > 100 µM |  | > 100 µM (inactive) | > 100 µM (inactive) | > 100 µM (inactive) | > 100 µM (inactive) | 26.2 µM (inactive) | 94.6 µM (inactive) |
| O=[N+]([O-])c1ccc(C2Nn3c(nnc3-c3cccc([N+](=O)[O-])c3)S2)cc1 (centres undefined) | > 100 µM (inactive) |  | 92.3 µM (inactive) | 0.0735 µM (active) | > 100 µM (inactive) | > 100 µM (inactive) | 66.7 µM (inactive) | 50 µM (inactive) | > 100 µM (inactive) | > 100 µM (inactive) | 37.8 µM (inactive) | > 100 µM |  | > 100 µM (inactive) | 71.9 µM (inactive) | 42.7 µM (inactive) | > 100 µM (inactive) | > 100 µM (inactive) | > 100 µM (inactive) |
| COC(=O)C1CCC(=O)N1C(c1ccccc1)c1cc(OC)c(OC)c(OC)c1 (centres undefined) | 63.5 µM (inactive) | 99.8 µM (inactive) | > 100 µM (inactive) | > 100 µM (inactive) | > 100 µM (inactive) | > 100 µM (inactive) |  | 21.8 µM (inactive) | > 100 µM (inactive) | 76.4 µM (inactive) | 31.8 µM (inactive) | 42.6 µM | 21.8 µM (inactive) | 55.1 µM (inactive) | 46.7 µM (inactive) |  | > 100 µM (inactive) | > 100 µM (inactive) |  |
| COc1ccc(OC)c(C#Cc2ccc(OC)c(C(=O)NCCc3ccc(F)cc3)c2)c1 | 3.53 µM (inactive) | 1.73 µM (inactive) | > 100 µM (inactive) |  |  | > 100 µM (inactive) | 5.05 µM (inactive) | 2.39 µM (inactive) |  | 61.2 µM (inactive) | 2.19 µM (inactive) | 4.45 µM |  | 28.3 µM (inactive) | 4.02 µM (inactive) | 3.32 µM (inactive) | > 100 µM (inactive) | > 100 µM (inactive) | > 100 µM (inactive) |
